From US7935848B2, “Butone derivatives useful as cooling agents” (Givaudan S.A., priority 2007, dated 2011)

How the values were obtained:
Format in all cases: in vivo, human
[1] = Cooling intensity: panelists taste aqueous solutions, compared with menthol at 2 ppm; settings: tasted by small group of panelists
[2] = Application in toothpaste: cooling perception after brushing; settings: for Cooling sensation felt by the panelist in all areas of the mouth: opaque toothgel with 0.50 g peppermint oil and 0.30 g saccharin, teeth brushed, mouth rinsed; for Cooling sensation felt by the panelist in all areas of the mouth / Duration of cooling perception: test compound 0.05 g per 100 g; for Cooling perception rating versus control: toothgel with 0.05 g compound plus 0.50 g peppermint oil versus peppermint oil control; for Duration of cooling perception: toothgel, 0.50 g peppermint oil
Procedure: The chemicals are mixed in the toothgel, a piece of toothgel is put on a toothbrush and a panelist's teeth are brushed. The mouth is rinsed with water and the water is spat out. […] The cooling perception lasts for 40 minutes.
The chemicals are mixed in the toothgel, a piece of toothgel is put on a toothbrush and a panelist's teeth are brushed. The mouth is rinsed with water and the water is spat out.

[3] = Application in chewing gum: cooling perception after chewing; settings: for Cooling perception rated higher than the control: chewing gum with 0.05 g compound plus 0.50 g peppermint oil versus peppermint oil control; for Cooling sensation felt by the panelist in all areas of the mouth: chewing gum with 0.50 g peppermint oil; for Cooling sensation felt by the panelist in all areas of the mouth / Duration of cooling perception: test compound 0.05 g, 2 g piece chewed 20 min; for Duration of cooling perception: chewing gum, 0.50 g peppermint oil
Procedure: The gum base and half of the sorbitol were mixed, maltitol syrup was added and the mixed with the gum mass. The rest of powder (rest of sorbitol, mannitol, potassium acesulfame, aspartame) were added and mixed for about 1 minute, when glycerine was added and the gum mass was mix for about 5 minutes, to form the blank chewing gum mass. Peppermint oil was worked into the mass and a piece of the resulting gum (2 g) is chewed by the panelist for 20 min and spat out. […] The cooling perception lasts for 50 minutes.
The chemical and peppermint oil was worked into the blank chewing gum mass from Example 12 a) and a piece of the resulting gum (2 g) is chewed by the panelist for 20 minutes and spat out.
The chemical and peppermint oil was worked into the blank chewing gum mass from Example 12a) and a piece of the resulting gum (2 g) is chewed by the panelist for 20 minutes and spat out.

Compound | Concentration with cooling intensity similar to or slightly higher than a solution of menthol at 2 ppm [1] [ppm] | Cooling sensation felt by the panelist in all areas of the mouth [2] | Cooling perception rating versus control [2] | Duration of cooling perception [2] [min] | Cooling perception rated higher than the control [3] [%] | Cooling sensation felt by the panelist in all areas of the mouth [3] | Duration of cooling perception [3]
CCCC(=O)[C@@H]1C[C@H](C)CC[C@H]1C(C)C [Example 1, 1-((1R,2S,5R)-2-isopropyl-5-methylcyclohexyl)butan-1-one] | 2.0 | intense cooling sensation | higher then the control | 72 | 49 | cooling sensation | over 60 minutes
CC(C)[C@@H]1CC[C@@H](C)C[C@H]1C(=O)CCCc1ccccc1 [Example 2, 1-((1R,2S,5R)-2-isopropyl-5-methylcyclohexyl)-4-phenylbutan-1-one] | 2.0 | intense cooling sensation | higher then the control | 70 | 49 | cooling sensation | over 60 minutes
CC(C)[C@@H]1CC[C@@H](C)C[C@H]1C(=O)CCCc1ccccn1 [Example 3, 1-((1R,2S,5R)-2-isopropyl-5-methylcyclohexyl)-4-(pyridin-2-yl)butan-1-one] | 0.01 | – | – | – | – | – | –
CC(C)C(C)(C(=O)CCCc1ccccc1)C(C)C [Example 4, 5-isopropyl-5,6-dimethyl-1-phenylheptan-4-one] | 3.0 | – | – | – | – | – | –
CCNC(=O)C1CC(C)CCC1C(C)C (stereo not drawn) [WS-3, N-ethyl p-menthanecarboxamide, reference compound] | 1.5 | – | – | – | – | – | –
CC(C)[C@@H]1CC[C@@H](C)C[C@H]1O [l-Menthol, reference compound] | 2.0 | – | – | – | – | – | –
